Results on two molecules are retold here after patent publication US20260234630A1, “Methods for Treating Multiple Myeloma” (Celgene Corporation, priority 2022, published 2026).

Assay [1] relates to acute myeloid leukemia (AML). Particulars: administered alone; cited from earlier work.
The next assay has as its system UHRF1. The experiment in a line: Protein expression changes by mass spectrometry in H929 cells. Format: cell-based. Particulars: CC-220 0.1 μM, 24 hr vs DMSO. How it is done:
FIG. 1A-1F. Down regulation of UHRF1 transcription by IMiDs correlates with drug sensitivity of multiple myeloma. (1A) Volcano plot of protein expression changes determined by mass spectrometry in H929 cells at 24 hr of treatment with CC-220 (0.1 μM) or DMSO control. X axis, Log2fold change (FC); Y axis, significance,-log 10 [p-value]. […] (1B) Volcano plot of gene expression changes determined by Affymetrix microarray in H929 cells treated with POM (1 μM) or DMSO for 24 hr. X axis, Log2fold change (FC); Y axis, significance,-log 10 [p-value], n=2 technical replicates). […] (1C) Western blot analysis protein expression of UHRF1, Ikaros, Aiolos and ZFP91 in H929 cells treated with 1 μM POM for indicated time. (1D) qRT-PCR analysis of UHRF1 gene expression levels in cells as in (1C). Error bars represent the SEM from duplicate measurements. (1E) Western blot analysis protein expression of UHRF1 and indicated proteins in MM cells treated with DMSO (−) or 1 μM POM (+) for 3 days. GAPDH serves as a loading control. (1F) Thymidine incorporation of various MM cell lines treated with indicated dose of POM for 3 days. Error bars represent the SEM from technical replicates. […]

The next assay deals with UHRF1 mRNA. The experiment in a line: qRT-PCR of UHRF1 gene expression in MM cells. Format: cell-based. Conditions: drug sensitive MM (FIG. 6 title). How it is done:
FIG. 1A-1F. Down regulation of UHRF1 transcription by IMiDs correlates with drug sensitivity of multiple myeloma. (1A) Volcano plot of protein expression changes determined by mass spectrometry in H929 cells at 24 hr of treatment with CC-220 (0.1 μM) or DMSO control. X axis, Log2fold change (FC); Y axis, significance,-log 10 [p-value]. […] (1B) Volcano plot of gene expression changes determined by Affymetrix microarray in H929 cells treated with POM (1 μM) or DMSO for 24 hr. X axis, Log2fold change (FC); Y axis, significance,-log 10 [p-value], n=2 technical replicates). […] (1C) Western blot analysis protein expression of UHRF1, Ikaros, Aiolos and ZFP91 in H929 cells treated with 1 μM POM for indicated time. (1D) qRT-PCR analysis of UHRF1 gene expression levels in cells as in (1C). Error bars represent the SEM from duplicate measurements. (1E) Western blot analysis protein expression of UHRF1 and indicated proteins in MM cells treated with DMSO (−) or 1 μM POM (+) for 3 days. GAPDH serves as a loading control. (1F) Thymidine incorporation of various MM cell lines treated with indicated dose of POM for 3 days. Error bars represent the SEM from technical replicates.
FIG. 2A-2E. UHRF1 expression is positively regulated by Ikaros and Aiolos in IMiDs sensitive MM cells. (2A) Western blot analysis protein expression of UHRF1, Ikaros, Aiolos, ZFP91 and Cereblon expression in control [shLuciferase (shLuc)] and cereblon knockdown (shCRBN) H929 cells treated with DMSO and 1 μM POM for 3 days. GAPDH, loading control. Arrow head, UHRF1. (2B) qRT-PCR analysis of UHRF1 gene expression levels in cells as in (2A). Data was normalized to ACTB. Error bars represent the SEM of technical duplicates. *** P<0.001 (Two-tailed unpaired Student's t-test). (2C) Western blot analysis protein expression of UHRF1, Ikaros and Aiolos in stably transduced H929 cells after Dox induction (0, 10, 50 or 100 ng/ml) for 3 days of non-target shRNA (shNT) or shRNAs targeting Ikaros (shIKZF1) or Aiolos (shIKZF3). (2D) qRT-PCR analysis of UHRF1 gene expression levels in cells as in (2C). Shown are cells induced with Dox (50 ng/ml) for 3 days. Data was normalized to GAPDH. Error bars represent the SEM of technical duplicates. *P<0.05, ** P<0.01, *** P<0.001, **** P<0.0001 (Two-tailed unpaired Student's t-test). (2E) ChIP-qPCR analysis of the occupancy Aiolos (upper panel) or H3K27ac (lower panel) occupancy at transcription star site (TSS), gene body (+7 kb) and gene end (GE) of UHRF1 gene in H929, MM1.S or RPMI 8226 cells treated with DMSO or 1 μM POM for 24 hr. ChIP with control rabbit IgG (IgG) serves as a negative control. Error bars represent the SEM of technical triplicates. * P<0.05, ** P<0.01, **** P<0.0001 (Two-tailed unpaired Student's t-test).
FIG. 6A-6D. […] (6A) Immunocytochemistry assay of UHRF1 in H929 cells treated with DMSO or 1 μM POM for 48 hrs. (6B) qRT-PCR analysis of UHRF1 gene expression levels in indicated MM cells treated with indicated doses of POM for 3 days. Data was normalized to ACTB. Error bars represent the SEM from duplicate measurements. * P<0.05, ** P<0.01, *** P<0.001, **** P<0.0001 (Two-tailed Student's t-test). […]
Total RNA was extracted by RNeasy Mini Kit (Qiagen) and reverse transcribed by iScrip cDNA Synthesis Kit (Bio-rad). Quantitative real-time PCR (qPCR) was conducted on a VillA 7 System using the Power SYBR Green PCR Master Mix (Applied Biosystems). Gene expression values were calculated by normalization to Actb using the comparative CT method.
In general terms: Real-time PCR tracks product formation cycle by cycle.

As for “CT-011: anti-PD-1 antibody, a humanized antibody”, the “response in treating AML at relapse” value in assay [1] is given as “failed to show response”.
For the molecule `O=C1CC[C@H](N2Cc3c(OCc4ccc(CN5CCOCC5)cc4)cccc3C2=O)C(=O)N1` [CC-220], the “UHRF1 protein expression change (mass spectrometry)” value with UHRF1 is reported as “one of the most significantly downregulated proteins”. In the assay on UHRF1 mRNA, the UHRF1 gene expression result is listed as “downregulated”.
